Consider two compounds from patent US6365652B2, “Trisaryl-1,3,5-triazine ultraviolet light absorbers” (Ciba Specialty Chemicals Corporation, priority 1997, dated 2002).

Molecules are shown by their SMILES.

The nature of series [1]: Solubility in solvent mixture (1:1:1 xylenes:MAK:PM acetate). Format: physicochemical. The text has this:
Compound E (the disubstituted amide) was compared against Compound B (the monosubstituted amide) for solubility in a 1:1:1 mixture of xylenes:methyl amyl ketone (MAK):propylene glycol methyl ether acetate (PM acetate), which is a typical coatings solvent mixture.

A short description of series [2]: Compatibility with acrylic urethane Component I (polyol component of two-component clearcoat). Type of series: physicochemical. The following applies: for Compatibility in fully formulated coating: after addition of DESMODUR N-3390 and 17 parts solvent mixture. The text has this: Compound E was again compared against Compound B, this time for compatibility in the following resin formulation which is the polyol component of a typical two-component acrylic urethane clearcoat formulation:
100 parts Acrylic Resin—JONCRYL® CDX-588 (70% Solids) (S.C. Johnson & Son, Inc., Racine, Wis.
5 parts—1 part Dibutyltin Dilaurate (T-12, Air Products, Allentown, Pa.)
45 parts Solvent Mixture (1:1:1 xylenes:MAK:PM Acetate)
1 part Hindered Amine Light Stabilizer (SANDUVOR® S-3055, Clariant Corp., Charlotte, N.C.).

Series [3] in a line: Bonding/migration in acrylic/melamine clearcoat on RIM substrate, microtome UV depth profile at 340 nm. The following applies: 3% on total resin solids, cure 30 min at 135° C. The protocol: Compound E was investigated to determine whether it forms a chemical bond with the acrylic/melamine resin matrix during curing. For this purpose, it was added to a clearcoat formulation and coated onto a plastic substrate, as described below. Non-bondable UV absorbers readily migrate from clearcoats into plastic substrates upon curing the coating. An absorber which bonds to the matrix should not migrate into the plastic substrate to any significant extent.
The acrylic/melamine resin formulation utilized was as follows: […]
40.6 g JONCRYL® 510 acrylic resin (S.C. Johnson, Inc. Racine, Wis.)
17.5 g CYMEL® 303 crosslinker (Cytec Industries, Inc., West Paterson, N.J.)
0.52 g CYCAT® 4040 catalyst (Cytec Industries, Inc., West Paterson, N.J.)
0.50 g DC 57 flow control agent […]
After cure, the coating and part of the substrate were microtomed into 10 μm thick slices parallel to the coating surface. […] Each microtomed slice was mounted between two microscope slides and its UV absorption spectrum measured using a Perkin-Elmer Lambda 2 spectrophotometer. The absorbance per micrometer sample thickness was determined at the prominent 340 nm absorption band intrinsic to this UVA.
The results of the UV analysis were plotted as a function of depth. […] By measuring the area under the curve, the quantity of Compound E remaining in the coatings and the fraction that migrated into the substrates were estimated. […]

The nature of series [4]: QUV accelerated weathering (UVB-313 bulbs) of acrylic urethane clear coat. The following applies: Example 10. An excerpt:
Compounds D and E were formulated in clear coatings which were applied to panels for accelerated weathering testing as follows. Compound D or E (1% or 2% based on total resin solids) and/or SANDUVOR® S-3055 HALS-type stabilizer (1% based on total resin solids) were predissolved in the solvent mixture (to a 5-10% solids level) and added to the clear acrylic urethane formulation given in Table 3 below. Components I and II were mixed just before use. Cold roll steel panels measuring 4″×12″ and precoated with an electro-coat primer ED505A and a white polyester acrylic melamine base-coat #542AB839, obtained from ACT Laboratories, Inc. (Hillsdale, Mich.) were coated with the clear coating formulations of Table 3. The draw-down technique, using WC-60 WireCators™ (Leneta Co., Hohokus, N.J.), was used to apply the clear coat to the pre-coated panels. The clear coats were allowed to flash for 10 min at ambient temperature and cured for 30 min at 135° C.
Accelerated weathering was carried out on the clear coating formulations using a QUV device equipped with UVB-313 fluorescent bulbs. […] Specular properties such as gloss ([…], ASTMD523) and distinctness of image (“DOI”) (Dorigon Meter D47R-6FT, Hunter Associate Laboratory) and yellowing (“Delta b”) were measured as a function of weathering time. […]

Where [5] appears, read: 1 wt % on total resin solids, 5° C.
[6] abbreviates: 1 wt % on total resin solids, 23° C.
Where [7] appears, read: 1 wt % on total resin solids, 60° C.

For `CCCCN(CCO)C(=O)COc1ccc(-c2nc(-c3ccc(C)cc3C)nc(-c3ccc(C)cc3C)n2)c(O)c1` [Compound E, 4-[4,6-Bis(2′4′-dimethylphenyl)-1,3,5-triazin-2-yl]-3-hydroxyphenoxyacetic acid, N-(n-butyl)-N-(2-hydroxyethyl)amide], the Solubility result in series [1] (5 wt %, 5° C.) was “Yes”; in series [1] (5 wt %, 23° C.), “Yes”; in series [1] (5 wt %, 50° C.) it was “Yes”; in series [1] (10 wt %, 5° C.), “did not crystallize out of solution”; in series [1] (10 wt %, 5° C., listed as EX1 (E)), “Yes”; in series [1] (10 wt %, 23° C.), “Yes”. Also, in series [1] (10 wt %, 50° C.), the Solubility entry is given as “Yes”. In series [1] (10 wt %, temperature not stated), the “Dissolution in the solvent mixture” value is “fully dissolved”. The Compatibility entry in series [2] (setting [5]) is given as “Yes”; in series [2] (setting [6]), “Yes”; in series [2] (setting [7]), “Yes”; in series [2] (2 wt % on total resin solids, 5° C.) it was “Yes”; in series [2] (2 wt % on total resin solids, 23° C.) it was “Yes”; in series [2] (2 wt % on total resin solids, 60° C.) it was “Yes”. In series [2] (5° C., concentration not given), the “Compatibility with the resin component” value is “compatible”. In series [2], the “Compatibility in fully formulated coating” value is “nor did it adversely affect the compatibility”. Moreover, the “Fraction of added compound remaining in the coating” value in series [3] was “about 95%”. The “Lifetime of coating compositions (percent gloss retention, percent DOI retention, delta b) compared to the unstabilized composition” value in series [4] was “extend the lifetime”.

Turning to `Cc1ccc(-c2nc(-c3ccc(C)cc3C)nc(-c3ccc(OCC(=O)NCCO)cc3O)n2)c(C)c1` [Compound B, 4-[4,6-Bis(2′4′-dimethylphenyl)-1,3,5-triazin-2-yl]-3-hydroxyphenoxyacetic acid, N-(2-hydroxyethyl)amide, reference compound], the Solubility entry in series [1] (5 wt %, 5° C.) is “No”; in series [1] (5 wt %, 23° C.) it was “No”; in series [1] (5 wt %, 50° C.), “did not dissolve”; in series [1] (5 wt %, 50° C., listed as CEX1 (B)), “No”. The Compatibility entry is “not compatible” in series [2] (setting [5]); “No” in series [2] (1 wt % on total resin solids, 5° C., listed as CEX1 (B)); “not compatible” in series [2] (setting [6]); “No” in series [2] (1 wt % on total resin solids, 23° C., listed as CEX1 (B)); “not compatible” in series [2] (setting [7]); “No” in series [2] (1 wt % on total resin solids, 60° C., listed as CEX1 (B)). In series [2], the “Compatibility in fully formulated coating” value is “did not result in the dissolution”.
